The text below walks through data of US8435969B2, “Method and compositions for treating hematological malignancies” (Gilead Sciences, Inc., priority 2006, dated 2013).

The conditions of data set [1]: dog, in vivo, iv, 0.2 mg/kg.
Experimental: Distribution of Prodrugs between PBMCs and Plasma in Dogs • Dogs were administered various prodrugs of cpr-PMEDAP as 0.2 mg/kg 30 minute IV infusions. […] Alanine was the L isomer. • Blood was collected into potassium EDTA and separated by centrifugation. Primary blood mononuclear cells (PBMCs) were collected using CPT tubes (sodium citrate). • For analysis, plasma samples were precipitated by addition of 100 μL acetonitirile containing internal standards (D4AP and TDF) to 100 μL of plasma for prodrug analysis. After protein precipitation by centrifugation, 100 μA was transferred into another tube to be dried and then reconstituted in 100 μL water with 0.2% formic acid. An aliquot of 20 μL was injected onto the column for LC/MS/MS analysis. Analysis was done using a 150×2.0 mm, 4 μm Synergi Fusion-RP 80A column (Phenomenex) and a multistage linear gradient from 0.5 to 99% acetonitrile in the presence of 0.2% formic acid at 0.25 mL/min. Analytes were detected using a Sciex API-4000 mass spectrometer using electrospray ionization in positive MRM mode. […] Separate aliquots of cells from each time point resuspended in 100% serum were used to establish the cell quantities in each sample. Cell samples were normalized to 15×10^6 cells per sample. Varying degrees of hemolyses have been observed. […] 20 μL was injected for LC/MS/MS analysis using a 50×2.0 mm, 4 μm Synergi Hydro-RP 80A column (Phenomenex) and a multistage linear gradient from 0 to 95% acetonitrile in the presence of 0.2% formic acid at 1.0 mL/min. Analytes were detected using a Sciex API-4000 mass spectrometer using electrospray ionization in positive MRM mode. • After drying, samples for dephosphorylation were treated with 1 U of calf intestinal phosphatase (alkaline phosphatase, Sigma) for 2 h in manufacturer provided buffer. Samples were then adjusted to 60% acetonitrile dried and resuspended in 60% acetonitrile containing internal standards (TDF and D4AP) and analyzed for cpr-PMEDAP as described for direct PBMC analysis.
The next data set is described as follows: Hygroscopicity. It is filed as physicochemical. The settings on record: solid form.
Data set [2] can be described thus: Solubility of the succinate salt. It is filed as physicochemical. The settings on record: pH 4.2-4.7.
The nature of data set [3]: Storage stability in aqueous solution. It is filed as physicochemical. The note with it: 60 hours. The source says: Parenteral (sterile aqueous) solutions of the organic acid salts of compound 1 optionally comprise a stabilizing amount of carbohydrate, typically a saccharide (mono, di or polysaccharides), glycoside or sugar alcohol (alditols). Polysaccharides should be biodegradable upon parenteral injection or infusion and include dextrins and starches, typically 3-10 units. Representative carbohydrates include hexoses, aldoses, aldohexoses, aldotrioses (e.g. glyceraldehyde), aldotetroses (e.g. erythrose), aldopentoses (e.g. arabinose), ketoses, ketohexose (e.g. fructose), ketopentoses (e.g. ribulose), maltose, sucrose, lactose, ribose, xylose, lyxose, allose, altrose, glucose, mannose, gulose, idose, galactose and talose. Of particular interest are carbohydrates conventionally used in parenteral formulations, e.g., mannitol or dextrose. The optical character of the carbohydrate is not critical, but it is desirable for the configuration to be such that the carbohydrate is biodegradable upon parenteral administration. […] On the other hand, storage in buffered solutions at pH 2, 7 and 9 under the same conditions lead to substantial degradation of compound 1: About 100%,18% and 76% by weight, respectively.

For `C[C@H](NP(=O)(COCCn1cnc2c(NC3CC3)nc(N)nc21)Oc1ccccc1)C(=O)OC(C)(C)C` (single isomer, unassigned) [MonoAlatBu(A)], the “PBMC to Plasma ratio” value in data set [1] was determined as 19.
Still for that read-out and setting: the same measure for `CC(C)OC(=O)[C@H](C)NP(=O)(COCCn1cnc2c(NC3CC3)nc(N)nc21)N[C@@H](C)C(=O)OC(C)C` [BisAlaiPr]: 1.2.
Turning to `CCOC(=O)C(C)NP(=O)(COCCn1cnc2c(NC3CC3)nc(N)nc21)NC(C)C(=O)OCC` (stereo not drawn) [Compound 1], in the data set “Hygroscopicity”, the Hygroscopicity result is “hygroscopic”.
As for `CC(C)OC(=O)[C@H](C)NP(=O)(COCCn1cnc2c(NC3CC3)nc(N)nc21)Oc1ccccc1` (stereo partly drawn) [MonoAlaiPr], in data set [1], the “PBMC to Plasma ratio” value was determined as 17.
As for `C[C@H](NP(=O)(COCCn1cnc2c(NC3CC3)nc(N)nc21)Oc1ccccc1)C(=O)OC(C)(C)C` (stereo partly drawn) [MonoAlatBu], in data set [1], the “PBMC to Plasma ratio” value is listed as 12.
Broadly, the solubility is how much of the substance goes into solution per volume. Turning to `CCOC(=O)[C@H](C)NP(=O)(COCCn1cnc2c(NC3CC3)nc(N)nc21)N[C@@H](C)C(=O)OCC` [compound 1 succinate], the solubility in data set [2] is over 39 mg/mL. Also, the Degradation on storage result in data set [3] (5% dextrose (by weight of solution; pH about 4.2, unbuffered), 40° C.) is “without significant degradation”; in data set [3] (buffered solution pH 2, 40° C.), “About 100 % by weight”; in data set [3] (buffered solution pH 9, 40° C.) it was about 76 % by weight.
